According to ChEMBL document CHEMBL1201862, “PubChem BioAssay data set” (2004):
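Dose response: 5 concentrations. Exposure: 48 h. Format: 96-well plates. Endpoint: linear interpolation; highest concentration if not reached. GI50: concentration for 50% inhibition of growth.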 Calls of active or inactive are those of the source. Rule as the data show it: active = GI50 up to about 1.1 µM and inactive = higher.

What was measured:
Test in all cases: NCI anticancer screen, dose series, 48 h
MOLT-4 = test system: MOLT-4
A498 = test system: A498
M19-MEL = test system: M19-MEL
Malme-3M = test system: Malme-3M
KM-20L2 = test system: KM-20L2
SK-OV-3 = test system: SK-OV-3
MDA-MB-231 = test system: MDA-MB-231
NCI-H226 = test system: NCI-H226
LXFL 529 = test system: LXFL 529
A549 = test system: A549
BT-549 = test system: BT-549
DLD-1 = test system: DLD-1
SN12C = test system: SN12C
U-251 = test system: U-251
K562 = test system: K562
NCI-H522 = test system: NCI-H522
PC-3 = test system: PC-3
HOP-92 = test system: HOP-92
XF498 = test system: XF498

Structure (SMILES)	GI50 (MOLT-4)	GI50 (A498)	GI50 (M19-MEL)	GI50 (Malme-3M)	GI50 (KM-20L2)	GI50 (SK-OV-3)	GI50 (MDA-MB-231)	GI50 (NCI-H226)	GI50 (LXFL 529)	GI50 (A549)	GI50 (BT-549)	GI50 (DLD-1)	GI50 (SN12C)	GI50 (U-251)	GI50 (K562)	GI50 (NCI-H522)	GI50 (PC-3)	GI50 (HOP-92)	GI50 (XF498)
N#CC(C#N)SCc1ccccc1	1.67 µM (inactive)	> 71.4 µM (inactive)	54.1 µM (inactive)	47.8 µM (inactive)	32.3 µM (inactive)	24.4 µM (inactive)	2.66 µM (inactive)	30.1 µM (inactive)	33.7 µM (inactive)	16.6 µM (inactive)	1.85 µM (inactive)	36.6 µM (inactive)	8.3 µM (inactive)	19.5 µM (inactive)	1.12 µM (inactive)	5.86 µM (inactive)	2.79 µM (inactive)	15.5 µM (inactive)	–
O=[N+]([O-])c1nccn1COCCF	> 100 µM (inactive)	–	> 100 µM (inactive)	> 100 µM (inactive)	> 100 µM (inactive)	> 100 µM (inactive)	–	> 100 µM (inactive)	> 100 µM (inactive)	> 100 µM (inactive)	–	> 100 µM (inactive)	> 100 µM (inactive)	> 100 µM (inactive)	> 100 µM (inactive)	> 100 µM (inactive)	–	> 100 µM (inactive)	> 100 µM (inactive)
[O-]/N=[N+](/[O-])C1CCCCC1=[N+]1CCOCC1 (stereo unspecified)	> 100 µM (inactive)	> 100 µM (inactive)	> 100 µM (inactive)	> 100 µM (inactive)	–	> 100 µM (inactive)	–	> 100 µM (inactive)	> 100 µM (inactive)	> 100 µM (inactive)	–	–	> 100 µM (inactive)	> 100 µM (inactive)	> 100 µM (inactive)	> 100 µM (inactive)	–	> 100 µM (inactive)	0.157 µM (active)
CC(C)OP(=O)(OC(C)C)/C(=N/Nc1ccc([N+](=O)[O-])cc1)NN	61.9 µM (inactive)	> 100 µM (inactive)	> 100 µM (inactive)	> 100 µM (inactive)	> 100 µM (inactive)	–	–	0.592 µM (active)	41.5 µM (inactive)	75.3 µM (inactive)	–	> 100 µM (inactive)	> 100 µM (inactive)	> 100 µM (inactive)	65.9 µM (inactive)	47.8 µM (inactive)	–	65 µM (inactive)	68.9 µM (inactive)
O=C1OC(c2ccccc2)=N/C1=C/NC(Cc1c[nH]c2ccccc12)C(=O)O (stereo unspecified)	> 100 µM (inactive)	> 100 µM (inactive)	> 100 µM (inactive)	> 100 µM (inactive)	> 100 µM (inactive)	> 100 µM (inactive)	–	> 100 µM (inactive)	> 100 µM (inactive)	> 100 µM (inactive)	–	> 100 µM (inactive)	> 100 µM (inactive)	> 100 µM (inactive)	> 100 µM (inactive)	68.4 µM (inactive)	–	> 100 µM (inactive)	> 100 µM (inactive)
COc1c2c(nc3ccccc13)-c1cc(C(CC(=O)OC(C)(C)C)C(=O)OC(C)C)c(CO)c(=O)n1C2 (stereo unspecified)	3.67 µM (inactive)	57.3 µM (inactive)	–	> 100 µM (inactive)	–	> 40.2 µM (inactive)	> 100 µM (inactive)	67.8 µM (inactive)	–	52.8 µM (inactive)	> 66.4 µM (inactive)	–	45.8 µM (inactive)	42.5 µM (inactive)	33.6 µM (inactive)	37.6 µM (inactive)	> 86.1 µM (inactive)	40 µM (inactive)	–
CN1CCc2cc(O)c3cc2C1Cc1ccc(cc1)Oc1cc(ccc1O)CC1c2c(cc4c(c2O3)OCO4)CCN1C (stereo unspecified)	24.3 µM (inactive)	–	–	–	18.2 µM (inactive)	–	–	22.9 µM (inactive)	–	45.7 µM (inactive)	–	75.3 µM (inactive)	32.9 µM (inactive)	30.1 µM (inactive)	17.2 µM (inactive)	–	–	–	14.4 µM (inactive)
C=C(C[C@@H](O)[C@H](C)NC(=O)OCc1ccccc1)C(=O)OC(C)(C)C	46.2 µM (inactive)	> 100 µM (inactive)	–	> 100 µM (inactive)	–	> 100 µM (inactive)	> 100 µM (inactive)	> 100 µM (inactive)	–	> 100 µM (inactive)	95.9 µM (inactive)	–	> 100 µM (inactive)	> 100 µM (inactive)	35.9 µM (inactive)	38.6 µM (inactive)	> 100 µM (inactive)	> 100 µM (inactive)	–
C1=C(c2ccccc2)SC(N2CCCCC2)S1 (stereo unspecified)	81.5 µM (inactive)	> 100 µM (inactive)	68.1 µM (inactive)	88.7 µM (inactive)	> 100 µM (inactive)	> 100 µM (inactive)	–	> 100 µM (inactive)	77.3 µM (inactive)	–	–	> 100 µM (inactive)	> 100 µM (inactive)	> 100 µM (inactive)	52.2 µM (inactive)	66.4 µM (inactive)	–	> 100 µM (inactive)	> 100 µM (inactive)
COC(=O)C[C@H](COCc1ccccc1)NC(=O)C[C@H](COCc1ccccc1)NC(=O)C[C@H](COCc1ccccc1)NC(=O)OC(C)(C)C	> 100 µM (inactive)	24 µM (inactive)	–	> 100 µM (inactive)	–	60.8 µM (inactive)	81.8 µM (inactive)	> 100 µM (inactive)	–	38.5 µM (inactive)	> 100 µM (inactive)	–	41.4 µM (inactive)	94 µM (inactive)	> 100 µM (inactive)	78 µM (inactive)	13.2 µM (inactive)	24.8 µM (inactive)	–
NC1c2c(Br)sc(N3CCCC3)c2C(=O)C1O (stereo unspecified)	> 50 µM (inactive)	> 50 µM (inactive)	–	> 50 µM (inactive)	–	> 50 µM (inactive)	29.1 µM (inactive)	> 50 µM (inactive)	–	> 50 µM (inactive)	> 50 µM (inactive)	–	> 50 µM (inactive)	> 50 µM (inactive)	> 50 µM (inactive)	> 50 µM (inactive)	> 50 µM (inactive)	26.2 µM (inactive)	–
CCCCCOc1ccc(NC2=C(Cl)C(=O)c3c(O)ccc(O)c3C2=O)cc1	3.7 µM (inactive)	> 10 µM (inactive)	–	2.49 µM (inactive)	–	> 10 µM (inactive)	3.35 µM (inactive)	> 10 µM (inactive)	–	> 10 µM (inactive)	4.42 µM (inactive)	–	2.96 µM (inactive)	6.38 µM (inactive)	3.27 µM (inactive)	2.55 µM (inactive)	5.25 µM (inactive)	6.85 µM (inactive)	–
Nc1nc(Cl)c(N)c(NC23CC4CC(CC(C4)C2)C3)n1	2.39 µM (inactive)	2.88 µM (inactive)	–	3.16 µM (inactive)	–	4.32 µM (inactive)	1.79 µM (inactive)	1.92 µM (inactive)	–	2.13 µM (inactive)	2.25 µM (inactive)	–	1.82 µM (inactive)	1.66 µM (inactive)	2.08 µM (inactive)	1.92 µM (inactive)	1.36 µM (inactive)	3.89 µM (inactive)	–
COC(=O)c1cc(CC(C)C)c2c(c1)[nH]c1ccccc12	34 µM (inactive)	> 100 µM (inactive)	> 100 µM (inactive)	> 100 µM (inactive)	> 100 µM (inactive)	> 100 µM (inactive)	–	28.7 µM (inactive)	> 100 µM (inactive)	> 100 µM (inactive)	–	> 100 µM (inactive)	> 100 µM (inactive)	> 100 µM (inactive)	15.9 µM (inactive)	68.2 µM (inactive)	–	43.5 µM (inactive)	> 100 µM (inactive)
O=C(CSCC(=O)N/N=C/c1ccncc1)N/N=C/c1ccncc1	> 100 µM (inactive)	> 100 µM (inactive)	–	> 100 µM (inactive)	–	> 100 µM (inactive)	> 100 µM (inactive)	> 100 µM (inactive)	–	> 100 µM (inactive)	> 100 µM (inactive)	–	> 100 µM (inactive)	> 100 µM (inactive)	> 100 µM (inactive)	> 100 µM (inactive)	> 100 µM (inactive)	> 100 µM (inactive)	–
O=c1ccc(=O)c2c(=O)c3ccccc3c(=O)c1=2	23 µM (inactive)	> 100 µM (inactive)	14.3 µM (inactive)	26.5 µM (inactive)	–	> 100 µM (inactive)	–	–	> 100 µM (inactive)	37.4 µM (inactive)	–	38.2 µM (inactive)	38.5 µM (inactive)	43.6 µM (inactive)	> 100 µM (inactive)	29.8 µM (inactive)	–	> 100 µM (inactive)	> 100 µM (inactive)
O=C(c1cc2ccccc2[nH]1)C(O)(c1cc2ccccc2[nH]1)c1cc2ccccc2[nH]1	> 246 µM (inactive)	–	–	> 246 µM (inactive)	> 246 µM (inactive)	> 246 µM (inactive)	–	50.9 µM (inactive)	> 246 µM (inactive)	> 246 µM (inactive)	–	> 246 µM (inactive)	> 246 µM (inactive)	> 246 µM (inactive)	> 246 µM (inactive)	> 246 µM (inactive)	–	> 246 µM (inactive)	–
Cc1ccc(S(=O)(=O)NC(CO)C(=O)O)cc1 (stereo unspecified)	> 100 µM (inactive)	> 100 µM (inactive)	–	> 100 µM (inactive)	–	> 100 µM (inactive)	> 100 µM (inactive)	> 100 µM (inactive)	–	> 100 µM (inactive)	> 100 µM (inactive)	–	> 100 µM (inactive)	> 100 µM (inactive)	> 100 µM (inactive)	> 100 µM (inactive)	> 100 µM (inactive)	> 100 µM (inactive)	–
Cc1cccc(N(CCC#N)S(=O)(=O)c2ccccc2)c1	> 100 µM (inactive)	> 100 µM (inactive)	–	> 100 µM (inactive)	–	> 100 µM (inactive)	> 100 µM (inactive)	> 100 µM (inactive)	–	> 100 µM (inactive)	> 100 µM (inactive)	–	> 100 µM (inactive)	> 100 µM (inactive)	> 100 µM (inactive)	> 100 µM (inactive)	> 100 µM (inactive)	> 100 µM (inactive)	–
